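These data come from cells grown in 96-well plates and exposed to compound for 48 hours at five concentrations. Here, GI50 denotes the concentration required for 50% inhibition of growth.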 The source made the active and inactive calls. Cut-off read from the data, not from the text of the source: active = GI50 up to about 1.1 µM and inactive = higher.
Assays:
Test in all cases: DTP human tumour cell line panel, 48 h
[1] = system: UO-31
[2] = system: RPMI-8226
[3] = system: DMS-273
[4] = system: LOX IMVI
[5] = system: UACC-257
[6] = system: NCI-H226
[7] = system: OVCAR-5
[8] = system: SK-OV-3
[9] = system: M14
[10] = system: HL-60
[11] = system: COLO 205
[12] = system: RXF 393
[13] = system: HOP-62
[14] = system: KM-20L2
[15] = system: EKVX
[16] = system: SNB-75
[17] = system: SW-620
[18] = system: HCC 2998
[19] = system: K562
[20] = system: M19-MEL

SMILES | GI50 [1] | GI50 [2] | GI50 [3] | GI50 [4] | GI50 [5] | GI50 [6] | GI50 [7] | GI50 [8] | GI50 [9] | GI50 [10] | GI50 [11] | GI50 [12] | GI50 [13] | GI50 [14] | GI50 [15] | GI50 [16] | GI50 [17] | GI50 [18] | GI50 [19] | GI50 [20]
O=C(Nc1ccc(F)cc1)C(=O)C(C(=O)c1ccccc1F)C1OC(=O)c2ccccc21 (stereo not given) | 52.6 µM (inactive) | 23.4 µM (inactive) | 43.3 µM (inactive) | 35.6 µM (inactive) | > 100 µM (inactive) | 21.4 µM (inactive) | > 100 µM (inactive) | 66.5 µM (inactive) | > 100 µM (inactive) | 29.8 µM (inactive) | 48.1 µM (inactive) | > 100 µM (inactive) | > 100 µM (inactive) | 86.3 µM (inactive) | 68.4 µM (inactive) | 43.7 µM (inactive) | 58.6 µM (inactive) | 38.5 µM (inactive) | 34.7 µM (inactive) | 
CCOCc1cc(=O)c2c(O)cc3c(c2o1)CCC(C)(C)O3 | > 100 µM (inactive) | > 100 µM (inactive) | > 100 µM (inactive) | > 100 µM (inactive) |  | > 100 µM (inactive) |  | > 100 µM (inactive) | > 100 µM (inactive) | > 100 µM (inactive) | > 100 µM (inactive) |  |  | > 100 µM (inactive) | > 100 µM (inactive) | > 100 µM (inactive) | > 100 µM (inactive) |  | > 100 µM (inactive) | > 100 µM (inactive)
CCOC(=O)c1cccc(NC(=O)CBr)c1 | 0.776 µM (active) | 1.07 µM (active) |  | 0.0904 µM (active) | 1.82 µM (inactive) | 0.76 µM (active) | 1.75 µM (inactive) | 1.85 µM (inactive) | 1.3 µM (inactive) | 1.74 µM (inactive) | 1.72 µM (inactive) | 1.72 µM (inactive) | 1.73 µM (inactive) |  | 1.62 µM (inactive) | 1.74 µM (inactive) | 0.361 µM (active) | 2.3 µM (inactive) | 0.362 µM (active) | 
N#C[C@@H](c1nc2ccccc2s1)c1ncccc1[N+](=O)[O-] | 3.99 µM (inactive) | 4.9 µM (inactive) |  | 4.97 µM (inactive) | 2.12 µM (inactive) | 5.55 µM (inactive) | 11.9 µM (inactive) | 16.6 µM (inactive) | 8.22 µM (inactive) | > 10 µM (inactive) | 4.31 µM (inactive) | 5.87 µM (inactive) | 10.4 µM (inactive) |  | 5.89 µM (inactive) | 13.9 µM (inactive) | > 10 µM (inactive) | 10.6 µM (inactive) | > 10 µM (inactive) | 
Clc1ccc(N/N=C(\c2ccccc2)c2ccccn2)nc1 | 0.0494 µM (active) | 0.147 µM (active) |  |  | < 0.0158 µM (active) | 0.0891 µM (active) | 0.895 µM (active) | 0.282 µM (active) | < 0.01 µM (active) | < 0.01 µM (active) | < 0.01 µM (active) | 2.2 µM (inactive) | 1.12 µM (active) |  | < 0.01 µM (active) | 0.316 µM (active) | < 0.01 µM (active) | 3.81 µM (inactive) |  | 
C[C@H](C(=O)O)C(=O)NC(=O)N(Cc1ccccc1)N=O | > 100 µM (inactive) | > 100 µM (inactive) | > 100 µM (inactive) | > 100 µM (inactive) | > 100 µM (inactive) |  | > 100 µM (inactive) | > 100 µM (inactive) | > 100 µM (inactive) |  | > 100 µM (inactive) |  | > 100 µM (inactive) | > 100 µM (inactive) | > 100 µM (inactive) | 98.4 µM (inactive) | > 100 µM (inactive) | > 100 µM (inactive) | 88.3 µM (inactive) | > 100 µM (inactive)
